Assay results from the CheMixHub viscosity set.

Assay: xn = mol fraction of the nth substance listed

CC(C)(C)O + CC(C)O
303.2 K, 101.33 kPa
Conditions	viscosity [mPa·s]
x2 = 0.05	3.297
x2 = 0.1	3.237
x2 = 0.15	3.172
x2 = 0.2	3.101
x2 = 0.3	2.931
x2 = 0.4	2.75
x2 = 0.5	2.572
x2 = 0.6	2.396
x2 = 0.7	2.224
x2 = 0.8	2.059
x2 = 0.85	1.979
x2 = 0.9	1.9
x2 = 0.95	1.831

CCNCC + CC(C)O
viscosity [mPa·s], 100 kPa
Conditions	293.15 K	298.15 K	303.15 K	308.15 K	313.15 K	318.15 K	323.15 K
x1 = 0.0215	2.3	1.99	1.72	1.49	1.31	1.15	1.01
x1 = 0.0807	1.99	1.74	1.51	1.31	1.152	1.02	0.9
x1 = 0.1595	1.63	1.44	1.256	1.09	0.97	0.86	0.78
x1 = 0.2401	1.33	1.187	1.05	0.924	0.82	0.732	0.67
x1 = 0.3491	1.02	0.91	0.806	0.72	0.64	0.58	0.54
x1 = 0.4399	0.84	0.75	0.671	0.598	0.54	0.491	0.46
x1 = 0.5598	0.65	0.58	0.527	0.48	0.435	0.396	0.37
x1 = 0.6501	0.551	0.5	0.455	0.416	0.376	0.345	0.32
x1 = 0.7395	0.48	0.43	0.39	0.36	0.33	0.304	0.283
x1 = 0.8496	0.41	0.376	0.343	0.319	0.296	0.271	0.251
x1 = 0.94	0.36	0.336	0.315	0.293	0.274	0.257	0.243
x2 = 0.0137	0.33	0.314	0.298	0.282	0.267	0.251	0.238

COCCOCCOCCO + CC(C)O
viscosity [mPa·s], 101 kPa
Conditions	x1 = 0.0079	x1 = 0.0146	x1 = 0.0314	x1 = 0.0413	x1 = 0.0581	x1 = 0.0775	x1 = 0.1025
298.15 K	2.089	2.09	2.099	2.116	2.128	2.159	2.207
308.15 K	1.568	1.574	1.594	1.608	1.628	1.683	1.706
318.15 K	1.202	1.21	1.235	1.252	1.266	1.3	1.343

CC(C)(C)O + CCC(C)=O
viscosity [mPa·s]
Conditions	298.15 K	303.15 K	308.15 K	313.15 K	318.15 K
101 kPa, x1 = 0.0925	0.3917	0.3748	0.3599	–	–
101 kPa, x1 = 0.1893	0.4117	0.3946	0.3737	–	–
101 kPa, x1 = 0.2885	0.4407	0.4203	0.3964	–	–
101 kPa, x1 = 0.3835	0.4875	0.452	0.422	–	–
101 kPa, x1 = 0.4877	0.5818	0.5397	0.4915	–	–
101 kPa, x1 = 0.5862	0.7295	0.6627	0.602	–	–
101 kPa, x1 = 0.6907	0.9865	0.8797	0.7882	–	–
101 kPa, x1 = 0.7895	1.424	1.237	1.085	–	–
101 kPa, x1 = 0.8935	2.253	1.879	1.588	–	–
101.3 kPa, x1 = 0.0985	0.423	0.401	0.38	0.361	0.343
101.3 kPa, x1 = 0.1968	0.464	0.438	0.413	0.391	0.37
101.3 kPa, x1 = 0.2962	0.52	0.487	0.457	0.429	0.405
101.3 kPa, x1 = 0.3941	0.595	0.553	0.514	0.48	0.449
101.3 kPa, x1 = 0.4949	0.705	0.647	0.596	0.551	0.511
101.3 kPa, x1 = 0.5928	0.859	0.779	0.708	0.647	0.593
101.3 kPa, x1 = 0.695	1.116	0.99	0.884	0.793	0.716
101.3 kPa, x1 = 0.8003	1.577	1.357	1.178	1.031	0.909
101.3 kPa, x1 = 0.9037	2.474	2.029	1.687	1.421	1.212

CCNCC + CCC(C)=O
298.15 K, 101 kPa
Conditions	viscosity [mPa·s]
x2 = 0.1013	0.273
x2 = 0.2023	0.279
x2 = 0.303	0.283
x2 = 0.4034	0.287
x2 = 0.5035	0.293
x2 = 0.6034	0.3
x2 = 0.703	0.313
x2 = 0.8023	0.331
x2 = 0.9013	0.353

CCNCC + CCC(C)O
viscosity [mPa·s], 100 kPa
Conditions	293.15 K	298.15 K	303.15 K	308.15 K	313.15 K	318.15 K	323.15 K
x1 = 0.0221	3.49	2.91	2.42	2.04	1.73	1.49	1.28
x1 = 0.081	3.02	2.54	2.12	1.82	1.55	1.34	1.18
x1 = 0.1601	2.49	2.11	1.8	1.56	1.33	1.16	1.049
x1 = 0.24	2.04	1.75	1.51	1.31	1.15	1.01	0.93
x1 = 0.3494	1.602	1.37	1.17	1.033	0.92	0.83	0.771
x1 = 0.4395	1.32	1.13	0.98	0.867	0.78	0.71	0.66
x1 = 0.5602	1.032	0.868	0.754	0.68	0.62	0.574	0.533
x1 = 0.65	0.827	0.712	0.628	0.57	0.528	0.489	0.459
x1 = 0.74	0.662	0.58	0.515	0.48	0.443	0.416	0.389
x1 = 0.8503	0.496	0.447	0.41	0.38	0.359	0.337	0.318
x1 = 0.94	0.384	0.356	0.335	0.309	0.298	0.284	0.268
x2 = 0.0129	0.336	0.317	0.3	0.284	0.27	0.257	0.244

COCCOCCOCCO + CCC(C)O
viscosity [mPa·s], 101 kPa
Conditions	x1 = 0.0039	x1 = 0.0079	x1 = 0.0151	x1 = 0.0318	x1 = 0.0511	x1 = 0.08	x1 = 0.1038
298.15 K	3.101	3.074	3.046	2.988	2.947	2.893	2.942
308.15 K	2.163	2.161	2.148	2.133	2.132	2.128	2.186
318.15 K	1.565	1.562	1.564	1.569	1.577	1.611	1.674

Nc1ccccc1 + CCC(C)O
303 K, 101.33 kPa
Conditions	viscosity [mPa·s]
x1 = 0.1	2.052
x1 = 0.2	1.978
x1 = 0.3	1.954
x1 = 0.4	1.944
x1 = 0.5	2.076
x1 = 0.6	2.156
x1 = 0.8	2.504
x1 = 0.9	2.835
